# Assay results as given in ChEMBL document CHEMBL1201862, “PubChem BioAssay data set” (2004).
# Activity calls are given as the source filed them.
# Experiments:
# [1] = target: DNA dC->dU-editing enzyme APOBEC-3A (Homo sapiens, UniProt P31941); assay: Dose Response confirmation of small molecule APOBEC3A DNA Deaminase Inhibitors via a fluorescence-based single-stranded DNA deaminase assay. [Related pubchem assays (depositor defined):AID493011, AID493024]; type: functional
# [2] = target: DNA dC->dU-editing enzyme APOBEC-3G (Homo sapiens, UniProt Q9HC16); type: functional;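 further: Dose-response counterscreen measuring inhibition of APOBEC3G DNA deaminase activity, run while confirming APOBEC3A inhibitors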
# Chain of DNA dC->dU-editing enzyme APOBEC-3G (Q9HC16 whole entry): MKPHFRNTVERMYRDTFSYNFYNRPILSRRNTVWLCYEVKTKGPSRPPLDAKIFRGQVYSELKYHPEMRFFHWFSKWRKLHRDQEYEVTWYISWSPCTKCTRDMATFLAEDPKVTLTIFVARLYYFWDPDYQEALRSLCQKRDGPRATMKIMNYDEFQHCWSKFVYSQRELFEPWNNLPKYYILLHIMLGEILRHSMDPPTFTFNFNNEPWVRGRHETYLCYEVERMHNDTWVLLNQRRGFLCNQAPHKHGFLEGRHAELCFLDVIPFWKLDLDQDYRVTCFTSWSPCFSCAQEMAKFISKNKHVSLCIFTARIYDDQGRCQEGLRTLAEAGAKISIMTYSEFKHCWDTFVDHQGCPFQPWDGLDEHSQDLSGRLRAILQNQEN
# [3] = target: T1, Zinc finger protein mex-5 (Caenorhabditis elegans, UniProt Q9XUB2); assay: MEX-5/TCR-2 RNA interaction inhibitors, dose response, biochemical, C. elegans, fluorescence polarization (AID 1960)
# T1 sequence (Q9XUB2 whole entry): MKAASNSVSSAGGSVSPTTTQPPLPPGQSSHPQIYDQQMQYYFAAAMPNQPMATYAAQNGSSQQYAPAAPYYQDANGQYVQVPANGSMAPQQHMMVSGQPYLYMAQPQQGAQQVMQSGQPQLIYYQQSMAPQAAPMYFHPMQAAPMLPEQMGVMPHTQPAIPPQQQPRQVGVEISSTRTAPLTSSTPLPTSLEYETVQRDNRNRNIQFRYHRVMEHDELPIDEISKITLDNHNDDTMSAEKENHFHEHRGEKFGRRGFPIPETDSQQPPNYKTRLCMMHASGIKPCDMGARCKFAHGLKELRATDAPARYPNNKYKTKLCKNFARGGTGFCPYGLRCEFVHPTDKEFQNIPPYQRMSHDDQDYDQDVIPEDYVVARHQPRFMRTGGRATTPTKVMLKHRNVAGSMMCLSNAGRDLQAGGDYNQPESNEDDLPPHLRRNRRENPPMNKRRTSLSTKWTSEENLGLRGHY
# [4] = target: T2, RNA-binding protein pos-1 (Caenorhabditis elegans, UniProt G5EF15); assay: inhibitors of POS-1/mex-3 RNA binding, dose response, biochemical, fluorescence polarization (AID 1964);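 further: purified POS-1 fused to maltose binding protein made in E. coli; potency of compounds blocking POS-1 binding to fluorescent RNA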
# T2 sequence (G5EF15 whole entry): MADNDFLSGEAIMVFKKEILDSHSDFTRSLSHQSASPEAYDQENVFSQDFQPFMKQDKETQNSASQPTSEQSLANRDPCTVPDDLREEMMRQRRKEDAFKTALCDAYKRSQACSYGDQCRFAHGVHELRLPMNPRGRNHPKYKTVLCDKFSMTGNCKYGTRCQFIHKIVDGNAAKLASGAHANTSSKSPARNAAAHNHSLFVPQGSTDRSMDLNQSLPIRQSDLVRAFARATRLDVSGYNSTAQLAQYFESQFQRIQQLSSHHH
# [5] = test system: Streptococcus sp. 'group A'; assay: growth inhibition of control SK(-) GAS strain, dose response, counter-screen for streptokinase expression inhibitor project, luminescence, kanamycin, BacTiterGlo, confirmation (AID 1900); type: functional, organism-based
# Streptococcus = assay: Group A Streptococcus viability loss, dose response, counter-screen for streptokinase expression inhibitor project, luminescence, BacTiterGlo (AID 1915); type: functional, organism-based;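 further: potency for reduction of bacterial viability or growth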
# H9c2 = assay: cells; type: functional, cell-based; conditions: Rattus norvegicus, H9c2, Myocardium;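 further: confirmatory concentration-response retest of ultra-high-throughput screening hits for modulation of myocardial damage; cell death induced by hydrogen peroxide oxidative stress; compound pretreatment for 60 min then peroxide exposure for 2 h; potency is for protecting the cells against peroxide damage rather than for killing them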
# [6] = inhibitors of clade B AD8 Env fusion, dose response, cell-based, cherry-pick (AID 652062); type: functional;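 further: luciferase signal from cell-cell fusion driven by HIV-1 clade B AD8 Env; potency is for inhibitors of fusion seen as a drop in luminescence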
# [7] = inhibitors of HIV Env-driven cell fusion, dose response, cherry-pick (AID 652057); type: functional, cell-based
# [8] = target: T3, Probable nicotinate-nucleotide adenylyltransferase (Staphylococcus aureus (strain N315), UniProt P65502); type: functional, Staphylococcus aureus subsp. aureus N315; conditions: read-out: IC50_Mean;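 on IC50 Mean: confirmatory dose-response retesting of NadD inhibitor hits first found in an ultra-high-throughput screen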
# T3 sequence (P65502 whole entry): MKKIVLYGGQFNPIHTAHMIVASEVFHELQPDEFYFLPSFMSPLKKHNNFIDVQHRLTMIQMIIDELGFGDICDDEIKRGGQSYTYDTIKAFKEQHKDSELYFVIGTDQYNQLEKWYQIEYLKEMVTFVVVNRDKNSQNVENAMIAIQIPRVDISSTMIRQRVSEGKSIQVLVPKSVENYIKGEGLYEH
# [9] = target: T4, Corticotropin-releasing factor receptor 2/Corticotropin-releasing factor-binding protein (Homo sapiens, UniProt P24387+Q13324); assay: Dose Response confirmation of uHTS hits for small molecule antagonists of the CRF-binding protein and CRF-R2 receptor complex.; type: functional; conditions: read-out: IC50_Mean
# T4 sequence (Q13324 whole entry): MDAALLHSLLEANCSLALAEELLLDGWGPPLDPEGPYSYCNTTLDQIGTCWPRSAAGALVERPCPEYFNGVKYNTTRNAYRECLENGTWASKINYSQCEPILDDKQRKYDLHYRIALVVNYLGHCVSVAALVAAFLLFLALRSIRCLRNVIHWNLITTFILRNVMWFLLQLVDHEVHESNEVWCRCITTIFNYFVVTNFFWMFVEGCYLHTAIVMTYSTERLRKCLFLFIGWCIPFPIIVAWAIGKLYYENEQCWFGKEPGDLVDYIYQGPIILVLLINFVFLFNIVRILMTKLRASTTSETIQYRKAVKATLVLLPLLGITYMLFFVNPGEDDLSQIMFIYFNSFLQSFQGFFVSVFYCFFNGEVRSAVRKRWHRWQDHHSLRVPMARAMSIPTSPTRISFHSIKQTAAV
# T4 sequence (P24387 whole entry): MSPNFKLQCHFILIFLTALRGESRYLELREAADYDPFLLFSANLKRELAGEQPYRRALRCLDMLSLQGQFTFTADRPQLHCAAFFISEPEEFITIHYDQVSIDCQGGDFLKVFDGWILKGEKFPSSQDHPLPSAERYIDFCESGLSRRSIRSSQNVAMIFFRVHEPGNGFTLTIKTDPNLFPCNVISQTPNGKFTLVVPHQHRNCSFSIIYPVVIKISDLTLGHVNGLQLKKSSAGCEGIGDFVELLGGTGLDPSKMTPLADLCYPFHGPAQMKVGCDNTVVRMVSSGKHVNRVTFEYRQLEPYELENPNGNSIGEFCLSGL
# [10] = target: T3, Probable nicotinate-nucleotide adenylyltransferase; type: functional, Staphylococcus aureus subsp. aureus N315
# [11] = target: T4, Corticotropin-releasing factor receptor 2/Corticotropin-releasing factor-binding protein; assay: activators of CRF receptor 2 with binding protein – uHTS hits, confirmation (AID 602473); type: functional; conditions: read-out: EC50_Mean
# [12] = HEp-2 cell cytotoxicity, dose response, cytotoxicity control for RSV inhibitor project, HTS (AID 2410); type: functional; conditions: human respiratory syncytial virus
# Protein skinhead-1 = target: T5, Protein skinhead-1 (Caenorhabditis elegans, UniProt P34707); type: functional
# T5 sequence (P34707 whole entry): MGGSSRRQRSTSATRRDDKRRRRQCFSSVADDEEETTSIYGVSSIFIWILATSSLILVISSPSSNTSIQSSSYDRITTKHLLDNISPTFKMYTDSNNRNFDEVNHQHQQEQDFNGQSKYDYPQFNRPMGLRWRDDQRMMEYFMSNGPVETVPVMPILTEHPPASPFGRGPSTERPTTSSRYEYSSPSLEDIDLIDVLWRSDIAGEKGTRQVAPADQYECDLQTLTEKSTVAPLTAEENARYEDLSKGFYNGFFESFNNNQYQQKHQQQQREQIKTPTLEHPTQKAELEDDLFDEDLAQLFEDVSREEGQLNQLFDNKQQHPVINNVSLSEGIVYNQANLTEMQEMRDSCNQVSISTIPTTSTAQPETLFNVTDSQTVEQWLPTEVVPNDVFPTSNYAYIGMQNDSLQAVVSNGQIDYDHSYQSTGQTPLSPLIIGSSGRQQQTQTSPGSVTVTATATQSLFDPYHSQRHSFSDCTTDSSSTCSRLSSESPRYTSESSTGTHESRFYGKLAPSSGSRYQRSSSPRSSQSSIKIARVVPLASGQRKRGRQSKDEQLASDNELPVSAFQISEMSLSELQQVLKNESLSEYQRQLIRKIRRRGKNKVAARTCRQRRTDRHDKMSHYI
# BJ [13] = assay: cytotoxicity toward BJ-TERT-LT-ST fibroblasts, dose response, cell-based, RAS-independent, luminescence (AID 1935); type: functional; conditions: Homo sapiens;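 further: BJ fibroblasts immortalized with TERT plus LT and ST oncogenes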
# [14] = cytotoxicity toward DRD oncogenic fibroblasts, dose response, cell-based, non-viral oncogenic, luminescence (AID 1934); type: functional; conditions: Homo sapiens
# BJ [15] = assay: cells; type: functional, cell-based; conditions: Homo sapiens
# BJ [16] = assay: cytotoxicity toward BJ-TERT fibroblasts, dose response, cell-based, RAS-independent, luminescence (AID 1933); type: functional; conditions: Homo sapiens
# Streptokinase A = target: T6, Streptokinase A (Streptococcus pyogenes serotype M1, UniProt P10520); assay: S. pyogenes streptokinase expression inhibitors, potency, dose response, plasminogen activation absorbance, OD405 (AID 1914); type: functional, Streptococcus pyogenes M1 GAS;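 further: secreted streptokinase activity via plasminogen activation per viability signal from cell pellet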
# T6 sequence (P10520 whole entry): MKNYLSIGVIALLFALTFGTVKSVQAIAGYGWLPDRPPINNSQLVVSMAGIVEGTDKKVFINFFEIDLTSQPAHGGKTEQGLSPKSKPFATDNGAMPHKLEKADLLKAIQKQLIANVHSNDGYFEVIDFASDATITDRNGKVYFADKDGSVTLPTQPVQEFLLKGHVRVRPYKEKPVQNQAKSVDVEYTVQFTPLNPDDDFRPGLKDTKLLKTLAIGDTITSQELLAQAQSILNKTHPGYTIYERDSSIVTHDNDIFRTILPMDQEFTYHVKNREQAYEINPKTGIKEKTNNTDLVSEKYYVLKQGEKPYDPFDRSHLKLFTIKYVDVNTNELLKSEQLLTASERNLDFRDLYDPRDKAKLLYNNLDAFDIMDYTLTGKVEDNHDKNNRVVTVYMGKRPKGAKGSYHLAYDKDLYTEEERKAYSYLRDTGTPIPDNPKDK
# Chain of DNA dC->dU-editing enzyme APOBEC-3A (P31941 whole entry): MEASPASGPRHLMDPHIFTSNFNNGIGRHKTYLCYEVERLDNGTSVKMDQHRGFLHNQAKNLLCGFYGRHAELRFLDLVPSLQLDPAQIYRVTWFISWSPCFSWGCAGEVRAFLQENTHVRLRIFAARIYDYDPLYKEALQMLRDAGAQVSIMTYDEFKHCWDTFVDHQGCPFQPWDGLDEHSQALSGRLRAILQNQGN
smiles,measurement,setting,value
COCCNC1=N[C@@H](c2ccc(Br)cc2)C(C(=O)OC)=C(C)N1Cc1ccccc1,IC50,[1],12 µM (active)
same,IC50,[2],15.1 µM (active)
Cc1cc(C=C2C(=O)NC(=O)NC2=O)c(C)n1-c1cccnc1,EC50,[3],36.7 µM (inconclusive)
same,EC50,[4],64.3 µM (active)
CCCc1n(CC(O)COCc2ccccc2)c2ccccc2[n+]1C (stereo not drawn),IC50,[1],3.16 µM (active)
same,IC50,[2],4.55 µM (active)
CCOC(=O)c1ccc(NC(=O)c2[nH]cnc2C(=O)NCCCCCNC(=O)OC(C)(C)C)cc1,EC50,[5],3.49 µM (active)
same,EC50,Streptococcus,5.74 µM (active)
same,IC50,H9c2,> 79 µM (inactive)
C[C@H](CO)N1C[C@H](C)[C@H](CN(C)Cc2cccc(F)c2)OCc2ccccc2-c2ccccc2C1=O,AC50,[6],< 0.26 µM (active)
same,AC50,[7],< 0.26 µM (active)
CCc1n(CC(O)COCc2ccccc2)c2ccccc2[n+]1C (stereo not drawn),IC50,[1],2.36 µM (active)
same,IC50,[2],3.14 µM (active)
Cc1ccccc1COc1ccc(C(=O)C2=C(O)C(=O)N(CCCn3ccnc3)C2c2ccco2)cc1 (stereo not drawn),IC50,[8],80 µM (inactive)
same,IC50,[9],> 47.1 µM (inactive)
same,IC50,[10],10.5 µM (active)
same,EC50,[11],> 53 µM (inactive)
CCOC(=O)c1ccc2c(c1)C1C=CCC1C(C(=O)OCC)N2 (stereo not drawn),EC50,[3],> 300 µM (not active)
same,EC50,[4],> 300 µM (not active)
Cc1c(OC(=O)CNC(=O)OC(C)(C)C)ccc2c3c(c(=O)oc12)CCC3,CC50,[12],36.9 µM (active)
same,IC50,Protein skinhead-1,> 100 µM (inactive)
O=C1N[C@H](Cc2ccccc2)COC(=O)[C@@H](Cc2ccc(F)cc2)C/C=C\C[C@H]1CC(=O)N(CCO)Cc1ccccc1,IC50,H9c2,> 79 µM (inactive)
CCOCCCn1/c(=N/C(=O)c2ccc(OC)c(OC)c2)c(C#N)cc2c(=O)n3cccc(C)c3nc21,EC50,[3],35.4 µM (active)
same,EC50,[4],26.8 µM (active)
NS(=O)(=O)c1cc(C(=O)OCC(=O)Nc2ccc3[nH]c(O)nc3c2)ccc1Cl,IC50,[1],10.4 µM (active)
same,IC50,[2],8.99 µM (active)
Cc1cc2ccccn2c1C(=O)c1ccc(Cl)c([N+](=O)[O-])c1,EC50,BJ [13],> 150 µM (inconclusive)
same,EC50,[14],> 150 µM (not active)
same,EC50,BJ [15],> 150 µM (not active)
same,EC50,BJ [16],> 150 µM (not active)
Clc1ccc(OCc2nc(-c3ccncc3)no2)c(Br)c1,IC50,Protein skinhead-1,31.6 µM (active)
Cc1cccc(C(=O)N[C@H](C(=O)OCc2cc(=O)n3c(n2)sc2ccccc23)C(C)C)c1,IC50,[1],14.7 µM (active)
same,EC50,Streptokinase A,> 150 µM (not active)
same,IC50,[2],24.5 µM (active)
same,EC50,[5],26.2 µM (active)
same,EC50,Streptococcus,40.5 µM (active)
CC(C)c1ccc(N(CC(=O)Nc2ccc(S(=O)(=O)N3CCOCC3)cc2)S(C)(=O)=O)cc1,IC50,Protein skinhead-1,> 100 µM (inactive)
C#CCn1/c(=N/C(=O)c2cc(-c3cccs3)nc3ccccc23)sc2cc(S(N)(=O)=O)ccc21,IC50,[8],24.6 µM (active)
same,CC50,[12],> 50 µM (active)
same,IC50,[10],12.8 µM (active)
CSc1nc(Cl)c(Br)c(N2CC2)n1,IC50,H9c2,> 79 µM (inactive)
CN(C(=O)CSCC(=O)Nc1ccc(Cl)cc1)C1CCCCC1,IC50,Protein skinhead-1,> 100 µM (inactive)
Cc1cccc(C(=O)NC(C(=O)Nc2nc(-c3ccccn3)cs2)C(C)C)c1 (stereo not drawn),EC50,Streptokinase A,> 150 µM (not active)
same,EC50,[5],6.29 µM (active)
same,EC50,Streptococcus,17.1 µM (active)
same,IC50,H9c2,8.6 µM (active)
COc1ccc(/C=C2\SC(=O)N(CC(=O)Nc3ccccc3O)C2=O)cc1OC,IC50,Protein skinhead-1,> 100 µM (inactive)
O=C(CCc1nc(O)c2ccccc2n1)OCC(=O)N1CCc2ccccc21,IC50,H9c2,> 79 µM (inactive)
